Test results reported in patent US20130065818A1, “Arylamide Compounds And Compositions And Uses Thereof” (POLYMEDIX, priority 2006, published 2013).
≈ marks a conversion by molar mass, not a printed value. Where two headings read alike, the source gives them in different places.

Tested on: E. coli D31
Test: MIC, control bacteria (Example 8)
Assay type: cell-based
Method: • Mueller-Hinton Broth in tubes was inoculated with 25 ocular isolates of Staphylococcus aureus fluoroquinolone-susceptible, Staphylococcus aureus fluoroquinolone-resistant, Staphylococcus epidermidis (Coagulase-negative Staphylococcus) fluoroquinolone-susceptible, Staphylococcus epidermidis (Coagulase-negative Staphylococcus) fluoroquinolone-resistant, Pseudomonas aeruginosa and Serratia marcescens, plus two controls (Staphylococcus aureus and E. coli) and incubated at 37° C. overnight on a shaker set at 250 rpm.
Control Bacteria—The two control bacteria (Staphylococcus aureus and E. coli) were treated as above.
Control Bacteria Set #1—this set of control bacteria were treated as the Streptococcus pneumoniae, Streptococcus viridans and Moraxella species (including Moraxella catarrhalis) test isolates above; the control bacteria underwent the same conditions as the test Streptococcus pneumoniae, Streptococcus viridans and Moraxella species (including Moraxella catarrhalis) isolates. This set of control bacteria was to determine whether there was a difference in the MICs by performing the MIC determinations in 2% lysed horse red blood cells with the standard method performed in Mueller-Hinton broth.
Control Bacteria Set #2—the control bacteria were added to 5 ml of Mueller-Hinton Broth without the 2% lysed horse red blood cells to achieve the standard inoculum concentration. This set of control bacteria is the normal control to determine whether the compounds are at the target MICs.
Control Bacteria Set #1—this set of control bacteria were treated as the Haemophilus influenzae test isolates above; the control bacteria underwent the same conditions as the test Haemophilus influenzae isolates. This set of control bacteria is to determine whether there was a difference in the MICs by performing the MIC determinations in HTM broth with the standard method performed in Mueller-Hinton broth.
Control Bacteria Set #2—the control bacteria were added to 5 ml of Mueller-Hinton Broth to achieve the standard inoculum concentration. This set of control bacteria is the normal control to determine whether the compounds are at the target MICs.
Ninety μl of the bacterial suspensions was dispensed in each well from column 1 to column 12. Each bacterial isolate was placed in one row of a 96 well polypropylene plate containing the test agents. The plates were placed on shaker at 15 minutes at room temperature, and then incubated at 37° C. overnight. MICs were determined visually as the lowest concentration of drug that inhibits visible bacterial growth.

N=C(N)NCCCCC(=O)Nc1cc(C(F)(F)F)cc(NC(=O)c2cnc(C(=O)Nc3cc(C(F)(F)F)cc(NC(=O)CCCCNC(=N)N)c3SCCN)cn2)c1SCCN [Oligomer 5] was tested, and the “Decrease of activity by addition of 2% lysed horse red blood cells to Mueller-Hinton broth” value (Control Bacteria E. coli D31) was “increase or have no effect”, the “Decrease of activity by use of HTM broth” value (Control Bacteria E. coli D31) was “no effect” and the MIC (Control Bacteria Set #1, run with Haemophilus influenzae MIC test, read-out: MIC) was 16 µg/mL (≈ 17.4 µM). It also gave an MIC (E. coli D31, Control for MIC Test SA-FQR, first batch) of 4 µg/mL (≈ 4.36 µM), an MIC (E. coli D31, Control for MIC Test SA-FQS, first batch) of 16 µg/mL (≈ 17.4 µM) and an MIC (E. coli D31, new batches, Control Only 1) of 8 µg/mL (≈ 8.72 µM). The MIC (E. coli D31, new batches, Control Only 2) was 8 µg/mL (≈ 8.72 µM), the MIC (E. coli D31, new batches, Control Only 3) was 8 µg/mL (≈ 8.72 µM) and the MIC (E. coli D31, new batches, Control Only 4) was 16 µg/mL (≈ 17.4 µM). It also gave an MIC (Escherichia coli, D31, Control Bacteria Set #1, run with Moraxella MIC test, read-out: MIC) of 2 µg/mL (≈ 2.18 µM), an MIC (Escherichia coli, D31, Control Only 1, read-out: MIC of control bacteria on day of MIC testing) of 8 µg/mL and an MIC (Escherichia coli, D31, Control Only 2, read-out: MIC of control bacteria on day of MIC testing) of 8 µg/mL. The MIC (Escherichia coli, D31, Control Only 3, read-out: MIC of control bacteria on day of MIC testing) was 8 µg/mL, the MIC (Escherichia coli, D31, Control Only 4, read-out: MIC of control bacteria on day of MIC testing) was 16 µg/mL and the MIC (Escherichia coli, D31, E. coli D31, Control Bacteria Set #1 (same conditions as test isolates), run with Streptococcus pneumoniae MIC test, read-out: MIC) was 2 µg/mL (≈ 2.18 µM). For the same molecule, the MIC (Escherichia coli, D31, E. coli D31, Control Bacteria Set #1 (same conditions as test isolates), run with Streptococcus viridans group MIC test, read-out: MIC) was 2 µg/mL (≈ 2.18 µM), the MIC (Escherichia coli, D31, E. coli D31, Control Bacteria Set #2 (Mueller-Hinton Broth), run with Streptococcus pneumoniae MIC test, read-out: MIC) was 16 µg/mL (≈ 17.4 µM) and the MIC (Escherichia coli, D31, E. coli D31, Control Bacteria Set #2 (Mueller-Hinton Broth), run with Streptococcus viridans group MIC test, read-out: MIC) was 16 µg/mL (≈ 17.4 µM). It also gave an MIC (Escherichia coli, D31, E. coli D31, control bacteria run with Pseudomonas aeruginosa MIC test, read-out: MIC) of 8 µg/mL (≈ 8.72 µM), an MIC (Escherichia coli, D31, E. coli D31, control bacteria run with S. aureus fluoroquinolone-resistant MIC test, read-out: MIC) of 4 µg/mL (≈ 4.36 µM) and an MIC (Escherichia coli, D31, E. coli D31, control bacteria run with S. aureus fluoroquinolone-susceptible MIC test, read-out: MIC) of 16 µg/mL (≈ 17.4 µM). It also gave an MIC (Escherichia coli, D31, E. coli D31, control bacteria run with S. epidermidis fluoroquinolone-resistant MIC test, read-out: MIC) of 4 µg/mL (≈ 4.36 µM), an MIC (Escherichia coli, D31, E. coli D31, control bacteria run with S. epidermidis fluoroquinolone-susceptible MIC test, read-out: MIC) of 4 µg/mL (≈ 4.36 µM) and an MIC (Escherichia coli, D31, E. coli D31, control bacteria run with Serratia marcescens MIC test, read-out: MIC) of 4 µg/mL (≈ 4.36 µM). It also gave an MIC (Escherichia coli, D31, E. coli D31, MIC previously obtained (target MIC), printed in parentheses, read-out: MIC for Control Bacteria within the parentheses) of 1.56 µg/mL (≈ 1.7 µM), an MIC (Escherichia coli, D31, E. coli D31, read-out: MIC) of 1.56 µg/mL (≈ 1.7 µM) and an MIC (Escherichia coli, D31, control for MIC test HI (Control Bacteria Set #2), read-out: MIC of control bacteria on day of MIC testing) of 16 µg/mL. The MIC (Escherichia coli, D31, control for MIC test MS (Control Bacteria Set #2), read-out: MIC of control bacteria on day of MIC testing) was 16 µg/mL, the MIC (Escherichia coli, D31, control for MIC test PA, read-out: MIC of control bacteria on day of MIC testing) was 8 µg/mL and the MIC (Escherichia coli, D31, control for MIC test SA-FQR, read-out: MIC of control bacteria on day of MIC testing) was 4 µg/mL. It also gave an MIC (Escherichia coli, D31, control for MIC test SA-FQS, read-out: MIC of control bacteria on day of MIC testing) of 16 µg/mL, an MIC (Escherichia coli, D31, control for MIC test SE-FQR, read-out: MIC of control bacteria on day of MIC testing) of 4 µg/mL and an MIC (Escherichia coli, D31, control for MIC test SE-FQS, read-out: MIC of control bacteria on day of MIC testing) of 4 µg/mL. For the same molecule, the MIC (Escherichia coli, D31, control for MIC test SM, read-out: MIC of control bacteria on day of MIC testing) was 4 µg/mL, the MIC (Escherichia coli, D31, control for MIC test SP, read-out: MIC of control bacteria on day of MIC testing) was 16 µg/mL and the MIC (Escherichia coli, D31, control for MIC test SV, read-out: MIC of control bacteria on day of MIC testing) was 16 µg/mL. The MIC (Escherichia coli, D31, reference MIC printed in parentheses beside the day's control value, read-out: MIC for Control Bacteria (within the parentheses)) was 1.56 µg/mL (≈ 1.7 µM).
